Reference: patent US11291684B2, “Treatment of glaucoma” (TX MEDIC AB, priority 2017, dated 2022)

Assays:
[1] = test system: retinal ganglion cell (RGC); test: Retinal ganglion cell counts by immunohistochemistry in TGF-β-induced glaucoma model; type: in vivo, Sprague Dawley rats; details: rat TGF-β glaucoma model; day 28; vs saline
Procedure: Glaucoma was induced in adult male Sprague Dawley rats by repeat twice weekly intracameral (IC) injections of transforming growth factor-β (TGF-β) to increase intraocular pressure (IOP). Sustained increases in IOP (after two weeks) leads to death of retinal ganglion cells (30-40%). Dextran sulfate (Tikomed AB, Sweden, WO 2016/076780) was administered at 15 mg/kg by daily subcutaneous injection from […] to assess RGC protection compared to controls.
(§1) Measured End-Points • IOP twice weekly throughout study from day 0 to day 28; • Immunohistochemistry for counting RGC that are immunoreactive for brain-specific homeobox/POU domain protein 3A (Brn3a) at day 28 (RGC survival); • Immunohistochemistry for laminin and fibronectin to evaluate scarring in the trabecular meshwork at day 28 in Groups 1 and 2; • Anterior segment and OCT imaging at day 28 to examine the angle and the thickness of the retinal nerve fiber layer comprising RGC axons; and • Body weight at day 28. […]
For quantification of RGC in retinal sections, RPBMS^+/DAPI^+ RGC were counted in 15 μm thick parasagittal sections of retina from a 250 μm linear portion from the ganglion cell layer at either side of the optic nerve. Four retinal sections from each eye in the control and treatment groups were quantified. […]

[2] = test system: trabecular meshwork (TM) scarring; test: Trabecular meshwork scarring: laminin and fibronectin immunohistochemistry in the angle; type: in vivo, Sprague Dawley rats; details: rat TGF-β glaucoma model, day 28, vs saline
Source text: as §1
After immunofluorescence staining, sections were viewed on a Zeiss Axioplan 2 epi-fluorescent microscope (Carl Zeiss Ltd) and images captured using the same exposure times for each antibody using a Zeiss AxioCam HRc. IHC was quantified according to the methods previously described. Briefly, the region of interest used for quantitation of TM fibrosis was defined by a quadrant of the same prescribed size for all eyes/treatments within the TM, and ECM deposition was quantified within this defined quadrant of the TM and the % immunofluorescent pixels above a standardized background threshold calculated using ImageJ software (National Institutes of Health, USA). […] Images were assigned randomized numbers to ensure blinding of treatment groups during quantification by the assessor.

Which “decline in RGC numbers present in the retina” value [1] does the source give for dextran sulfate here?
The value was “significantly prevented”.

And the “levels of immunoreactive laminin in the angle” value ([2]; P<0.001)?
The value was “significantly reduced”.

And the “levels of immunoreactive fibronectin in the angle” value ([2]; P<0.01)?
Its value is “significantly reduced”.
